# Test results published in patent US20120077836A1, “METHODS OF ADMINISTERING (4AR,10AR)-1-N-PROPYL-1,2,3,4,4A,5,10,10A-OCTAHYDROBENZO [G] QUINOLINE-6,7-DIOL AND RELATED COMPOUNDS ACROSS THE ORAL MUCOSA, THE NASAL MUCOSA OR THE SKIN AND PHARMACEUTICAL COMPOSITIONS THEREOF” (priority 2009, published 2012).
# Structures can show the parent of a compound that is named as a salt. Where two headings read alike, the source gives them in different places.
# Assay: Intravenous and buccal pharmacokinetic study in the minipig
# Assay type: in vivo
# Conditions: male, Göttingen, in vivo
# Protocol: The test article was compound 10. The vehicles for the test article were Sterile saline (0.9% NaCl) (intravenous administration) supplied by Baxter, Norfolk or Ascorbic acid reconstituted in Water for Injection (buccal administration) supplied by VWR International, Leicestershire. Formulations were prepared on the day of dosing.
# Three male minipigs of the Göttingen ApS strain were supplied by Ellegaard Göttingen, Dalmose, Denmark. At initiation of dosing, animals were approximately 15 to 17 weeks old. Each animal was dosed once on three separate occasions according to the following study design:
# Animals were deprived of food overnight and anaesthetised with isoflurane in oxygen (administered by facemask), prior to each dosing occasion.
# Intravenous administrations were performed by slow manual injection via a temporary catheter placed in the ear vein whilst under anaesthesia, animals were allowed to recover from the anaesthesia immediately after dosing. Whilst anaesthetised, a catheter was inserted into the jugular vein and secured in place for the purpose of blood collection. The catheter was filled with heparin (250 iu/mL in 0.9% sodium chloride). The exterior portion of the catheter was routed from the ventral neck to the dorsum of the minipig and protected by bandaging. The distal end of the catheter was capped and placed in a re-sealable pouch within the bandage. The jugular catheter was retained in place and flushed with heparinised saline every 24 hours.
# Buccal administrations were performed by applying the test formulation to the buccal membrane for 5 minutes while the animal was anaesthetised. Any residual formulation remaining in the mouth after the 5 minute application was […]. Animals were allowed to recover from the anaesthesia immediately after dosing.
# , all animals on Day 3 following buccal administration of a low dose and all animals on Day 5 following buccal administration of a high dose for pharmacokinetic analysis. The samples (1.0 mL) were collected from the jugular vein (via catheter) into tubes containing EDTA anticoagulant. Prior to addition of the blood sample, 100 microL of a stabiliser (2% beta-mercaptoethanol containing 20 mg/mL ascorbic acid) was added to each pot. The stabiliser was prepared fresh on each day of sample collection. Samples were collected as follows: • Day 1: 5, 10, 15, 30 and 45 minutes and 1, 2, 4, 6, 8, 12 and 16 hours post-dose • Day 3: pre-dose and at 5, 10, 15, 30 and 45 minutes and 1, 2, 4, 6, 8, 12, 16 and 24 hours post-dose • Day 5: pre-dose and at 5, 10, 15, 30 and 45 minutes and 1, 2, 4, 6, 8, 12, 16 and 24 hours post-dose
# The times of the blood sampling were generally adhered to. The greatest deviation from the scheduled timepoints was one minute late at the 5 minute timepoint on Day 3. The blood samples were centrifuged within one hour of sample collection and the resultant plasma was frozen prior to analysis.
# The plasma concentrations of compound 10 were determined after solid phase extraction of the plasma samples followed by high performance liquid chromatography with tandem mass spectrometric detection (LC-MS/MS) using a sample volume of about 100 microL.
# Internal standard solution, containing the internal standard of compound 10 was added to thawed plasma samples (100 microL aliquot). The SPE plate (Oasis HLB, 10 mg) was conditioned with methanol (500 microL) followed by water (500 microL). The sample (approx. 500 microL aliquot) was transferred to the pre-conditioned SPE plate. The sample was then passed through the cartridge, which was then washed with water:methanol (90:10 v/v, 0.5 mL). The sample was then eluted into a fresh 96 well polypropylene collection plate with 20 mM ammonium formate (aq): acetonitrile: formic acid (50:50:2 v/v/v, 250 microL). The organic component of the eluted samples was then evaporated under a gentle stream of nitrogen until approximately 50% of the original volume was remaining. […]
smiles,measurement,setting,value
"CCCN1CCC[C@@H]2Cc3c(ccc(O)c3O)C[C@H]21 [compound 10, (4aR,10aR)-1-n-Propyl-1,2,3,4,4a,5,10,10a-octahydro-benzo[g]quinoline-6,7-diol hydrobromide]",concentration at 0.17 h,"0.01 mg/kg, buccal 0.010 mg/kg, mean, read-out: Plasma concentration Day 3 Hour 0.17, Mean",0.148 ng/mL
same,concentration at 0.25 h,"0.01 mg/kg, buccal 0.010 mg/kg, mean, read-out: Plasma concentration Day 3 Hour 0.25, Mean",0.314 ng/mL
same,concentration at 0.5 h,"0.01 mg/kg, buccal 0.010 mg/kg, mean, read-out: Plasma concentration Day 3 Hour 0.5, Mean",0.752 ng/mL
same,concentration at 0.75 h,"0.01 mg/kg, buccal 0.010 mg/kg, mean, read-out: Plasma concentration Day 3 Hour 0.75, Mean",1.04 ng/mL
same,concentration at 1 h,"0.01 mg/kg, buccal 0.010 mg/kg, mean, read-out: Plasma concentration Day 3 Hour 1, Mean",0.869 ng/mL
same,concentration at 2 h,"0.01 mg/kg, buccal 0.010 mg/kg, mean, read-out: Plasma concentration Day 3 Hour 2, Mean",0.487 ng/mL
same,bioavailability,"0.01 mg/kg, buccal 0.010 mg/kg, range, read-out: bioavailability",30 to 42%
same,bioavailability,"0.01 mg/kg, buccal 0.010 mg/kg, read-out: bioavailability, mean values",31 to 35%
same,half-life,"0.01 mg/kg, buccal 0.010 mg/kg, read-out: mean apparent terminal half-life (converted)",5.1 h
same,Tmax,"0.04 mg/kg, buccal 0.040 mg/kg, animal 1",1 h
same,concentration at 0.5 h,"0.04 mg/kg, buccal 0.040 mg/kg, individual animals 1-3, read-out: Plasma concentration Day 5 Hour 0.5",7.88 ng/mL
same,concentration at 0.75 h,"0.04 mg/kg, buccal 0.040 mg/kg, individual animals 1-3, read-out: Plasma concentration Day 5 Hour 0.75",15.9 ng/mL
same,concentration at 1 h,"0.04 mg/kg, buccal 0.040 mg/kg, individual animals 1-3, read-out: Plasma concentration Day 5 Hour 1",11.9 ng/mL
same,concentration at 4 h,"0.04 mg/kg, buccal 0.040 mg/kg, mean, read-out: Plasma concentration Day 1 Hour 4, Mean",1.93 ng/mL
same,concentration at 6 h,"0.04 mg/kg, buccal 0.040 mg/kg, mean, read-out: Plasma concentration Day 1 Hour 6, Mean",0.93 ng/mL
same,concentration at 8 h,"0.04 mg/kg, buccal 0.040 mg/kg, mean, read-out: Plasma concentration Day 1 Hour 8, Mean",0.522 ng/mL
same,concentration at 12 h,"0.04 mg/kg, buccal 0.040 mg/kg, mean, read-out: Plasma concentration Day 1 Hour 12, Mean",0.604 ng/mL
same,concentration at 16 h,"0.04 mg/kg, buccal 0.040 mg/kg, mean, read-out: Plasma concentration Day 1 Hour 16, Mean",0.292 ng/mL
same,concentration at 24 h,"0.04 mg/kg, buccal 0.040 mg/kg, mean, read-out: Plasma concentration Day 1 Hour 24, Mean",0.119 ng/mL
same,concentration at 0.08 h,"0.04 mg/kg, buccal 0.040 mg/kg, mean, read-out: Plasma concentration Day 5 Hour 0.08, Mean",1.29 ng/mL
same,concentration at 0.17 h,"0.04 mg/kg, buccal 0.040 mg/kg, mean, read-out: Plasma concentration Day 5 Hour 0.17, Mean",3.27 ng/mL
same,concentration at 0.25 h,"0.04 mg/kg, buccal 0.040 mg/kg, mean, read-out: Plasma concentration Day 5 Hour 0.25, Mean",5.45 ng/mL
same,concentration at 0.5 h,"0.04 mg/kg, buccal 0.040 mg/kg, mean, read-out: Plasma concentration Day 5 Hour 0.5, Mean",7.14 ng/mL
same,concentration at 0.75 h,"0.04 mg/kg, buccal 0.040 mg/kg, mean, read-out: Plasma concentration Day 5 Hour 0.75, Mean",12.4 ng/mL
same,concentration at 1 h,"0.04 mg/kg, buccal 0.040 mg/kg, mean, read-out: Plasma concentration Day 5 Hour 1, Mean",10.8 ng/mL
same,concentration at 2 h,"0.04 mg/kg, buccal 0.040 mg/kg, mean, read-out: Plasma concentration Day 5 Hour 2, Mean",6.3 ng/mL
same,bioavailability,"0.04 mg/kg, buccal 0.040 mg/kg, range, read-out: bioavailability",73 to 136%
same,bioavailability,"0.04 mg/kg, buccal 0.040 mg/kg, read-out: bioavailability, mean values",105 to 122%
same,half-life,"0.04 mg/kg, buccal 0.040 mg/kg, read-out: mean apparent terminal half-life (converted)",5.6 h
same,half-life,"IV bolus 0.0025 mg/kg, range of animals, read-out: apparent terminal elimination half-life (t½)",3.4 to 4.3 h
same,half-life,"IV bolus 0.025 mg/kg (as printed in conclusion), read-out: individual apparent terminal elimination half-life",3.4 to 4.3 h
same,half-life,"buccal, range in individual animals, read-out: apparent terminal elimination half-life",3.1 to 5.6 h
same,concentration at 0.08 h,"iv, 0.0025 mg/kg, IV 0.0025 mg/kg, individual animals 1-3, read-out: Plasma concentration Day 1 Hour 0.08",1.21 ng/mL
same,concentration at 0.17 h,"iv, 0.0025 mg/kg, IV 0.0025 mg/kg, individual animals 1-3, read-out: Plasma concentration Day 1 Hour 0.17",0.834 ng/mL
same,concentration at 0.25 h,"iv, 0.0025 mg/kg, IV 0.0025 mg/kg, individual animals 1-3, read-out: Plasma concentration Day 1 Hour 0.25",0.74 ng/mL
same,concentration at 0.5 h,"iv, 0.0025 mg/kg, IV 0.0025 mg/kg, individual animals 1-3, read-out: Plasma concentration Day 1 Hour 0.5",0.562 ng/mL
same,concentration at 0.75 h,"iv, 0.0025 mg/kg, IV 0.0025 mg/kg, individual animals 1-3, read-out: Plasma concentration Day 1 Hour 0.75",0.534 ng/mL
same,concentration at 1 h,"iv, 0.0025 mg/kg, IV 0.0025 mg/kg, individual animals 1-3, read-out: Plasma concentration Day 1 Hour 1",0.379 ng/mL
same,concentration at 2 h,"iv, 0.0025 mg/kg, IV 0.0025 mg/kg, individual animals 1-3, read-out: Plasma concentration Day 1 Hour 2",0.198 ng/mL
same,concentration at 4 h,"iv, 0.0025 mg/kg, IV 0.0025 mg/kg, individual animals 1-3, read-out: Plasma concentration Day 1 Hour 4",0.0748 ng/mL
same,concentration at 6 h,"iv, 0.0025 mg/kg, IV 0.0025 mg/kg, individual animals 1-3, read-out: Plasma concentration Day 1 Hour 6",0.0476 ng/mL
same,concentration at 8 h,"iv, 0.0025 mg/kg, IV 0.0025 mg/kg, individual animals 1-3, read-out: Plasma concentration Day 1 Hour 8",0.0245 ng/mL
same,concentration at 12 h,"iv, 0.0025 mg/kg, IV 0.0025 mg/kg, individual animals 1-3, read-out: Plasma concentration Day 1 Hour 12",0.017 ng/mL
same,concentration at 16 h,"iv, 0.0025 mg/kg, IV 0.0025 mg/kg, individual animals 1-3, values below LLOQ 10 pg/mL estimated, read-out: Plasma concentration Day 1 Hour 16",0.00858 ng/mL
same,concentration at 0.08 h,"iv, 0.0025 mg/kg, IV 0.0025 mg/kg, mean, read-out: Plasma concentration Day 1 Hour 0.08, Mean",1.62 ng/mL
same,concentration at 0.17 h,"iv, 0.0025 mg/kg, IV 0.0025 mg/kg, mean, read-out: Plasma concentration Day 1 Hour 0.17, Mean",1.02 ng/mL
same,concentration at 0.25 h,"iv, 0.0025 mg/kg, IV 0.0025 mg/kg, mean, read-out: Plasma concentration Day 1 Hour 0.25, Mean",0.913 ng/mL
same,concentration at 0.5 h,"iv, 0.0025 mg/kg, IV 0.0025 mg/kg, mean, read-out: Plasma concentration Day 1 Hour 0.5, Mean",0.673 ng/mL
same,concentration at 0.75 h,"iv, 0.0025 mg/kg, IV 0.0025 mg/kg, mean, read-out: Plasma concentration Day 1 Hour 0.75, Mean",0.619 ng/mL
same,concentration at 1 h,"iv, 0.0025 mg/kg, IV 0.0025 mg/kg, mean, read-out: Plasma concentration Day 1 Hour 1, Mean",0.421 ng/mL
same,concentration at 2 h,"iv, 0.0025 mg/kg, IV 0.0025 mg/kg, mean, read-out: Plasma concentration Day 1 Hour 2, Mean",0.249 ng/mL
same,concentration at 4 h,"iv, 0.0025 mg/kg, IV 0.0025 mg/kg, mean, read-out: Plasma concentration Day 1 Hour 4, Mean",0.0887 ng/mL
same,concentration at 6 h,"iv, 0.0025 mg/kg, IV 0.0025 mg/kg, mean, read-out: Plasma concentration Day 1 Hour 6, Mean",0.0598 ng/mL
same,concentration at 8 h,"iv, 0.0025 mg/kg, IV 0.0025 mg/kg, mean, read-out: Plasma concentration Day 1 Hour 8, Mean",0.033 ng/mL
same,concentration at 12 h,"iv, 0.0025 mg/kg, IV 0.0025 mg/kg, mean, read-out: Plasma concentration Day 1 Hour 12, Mean",0.0226 ng/mL
same,concentration at 16 h,"iv, 0.0025 mg/kg, IV 0.0025 mg/kg, mean, read-out: Plasma concentration Day 1 Hour 16, Mean",0.00931 ng/mL
